Laboratory results: ChEMBL document CHEMBL1150709, “Irisones A and B: two new isoflavones from Iris missouriensis” (1987)

tested on: P388; test: Cytotoxicity against mouse P388 cells; format: functional; details: read-out: ED50 (the source's name)

Row | SMILES | EC50 [µg/mL]
1 | COc1ccccc1-c1coc2cc(O)c(OC)c(O)c2c1=O | > 50
2 | COc1ccccc1-c1coc2cc3c(c(O)c2c1=O)OCO3 [IRISONE A] | > 50
3 | O=c1c(-c2ccccc2O)coc2cc3c(c(O)c12)OCO3 [IRISONE B] | > 50
